According to patent publication US9283277B2, “Methods and compositions for the treatment of obesity” (Children's Medical Center Corporation, priority 2008, dated 2016):

How the values were obtained:
[1] = system: blood brain barrier; assay: Blood brain barrier permeability with Fluoro-gold in PBA-treated HFD-fed mice; type: in vivo; details: HFD-fed wt male mice; PBA 12 days; Fluoro-gold IP 15 mg/kg
Procedure: Leptin resistance in obesity arises due to both impairment of leptin action in the hypothalamus and defects in the transport of leptin in the blood brain barrier^14,42. […] Three days after the injections, mice were anesthetized and perfused with saline and then 4% paraformaldehyde. After the fixation, brains were removed. Following the necessary further fixation and sectioning, Fluoro-gold staining was performed on the whole brain slices. […] Reactivity against the Fluoro-gold is not different between the vehicle and PBA-treated groups. Fluoro-gold-labeled neurons should be present in the areas like ventro-medial hypothalamus (VMH), dorso-medial hypothalamus (DMH) and lateral hypothalamic area (LHA), if the BBB permeability is perturbed. […] (data not shown)

[2] = system: HFD-fed obese C57BL/6 wt mice; assay: TUDCA and leptin in HFD-induced obesity model; type: in vivo
Procedure: (a) Hypothalamic PERK phosphorylation (Thr980) after 21 days of vehicle or TUDCA (150 mg/kg/day) treatment. Following a five-day pretreatment with TUDCA (150 mg/kg/day) or vehicle, nine-ten week old ob/ob mice were treated either with leptin (1 mg/kg/day) or vehicle. (b) Body weight (g), (c) % decrease in body weight, (d) daily food intake of the ob/ob mice during 18 days of treatment period with the indicated regimens. (e) Blood glucose (mg/dl) levels at the 18th day of treatment. Metabolic cage studies were performed; (f) CO2 production (ml/kg/hr), (g) O2 consumption (ml/kg/hr), (h) Respiratory exchange ratio (VCO2/VO2), (i) X-axis ambulatory activity, (j) Heat generation (kcal/hr). Dexa scan analysis of (k) total fat amount (g), (l) fat % and (m) lean body mass (g). C57BL/6 male wt mice were kept on HFD feeding for 32 weeks and following a five day acclimation period were pretreated with TUDCA (150 mg/kg/day) for five days. At the end of pretreatment period intraperitoneal vehicle and leptin (1 mg/kg/day) treatments were started. (n) Body weight (g), (o) % decrease in bodyweight of the HFD-fed mice during the 16-day treatment. (n=6 for VEH, n=7 for Lep, n=7 for TUD, n=8 for TUD+Lep group). Error bars are ±S.E.M., P values are determined by Student's t-test. (*p<0.05, **p<0.01, ***p<0.001)
We next tested the efficacy of TUDCA as a leptin sensitizer in the HFD-induced obesity model. In this experiment we used 35 weeks old and C57BL/6 wt mice, which were kept on HFD-feeding for 32 weeks. We divided the mice into two groups for TUDCA and TUDCA-leptin co-treatment. Body weight of the mice in this cohort was between 35-52 g. We specifically chose the mice with the highest bodyweight for TUDCA and leptin co-treatment group to investigate whether leptin will become effective in these severely obese mice when administered along with the TUDCA. The initial body weight of the TUDCA group was 38.33±1.16 (g) and TUDCA+leptin group was 48.46±1.82 (g) (FIG. 5n). Following an initial five days acclimation period mice were treated with TUDCA (150 mg/kg/day) for […], and subsequently either vehicle or […] treatment was started. […] Following the acclimation, TUDCA pretreatment was started and following the five-day pretreatment, vehicle and leptin (1 mg/kg/day) administration were initiated. TUDCA alone led to a significant decrease in bodyweight by reducing the initial weight from 36.16±0.99 (g) to 32.61±0.65 during the 16 days of treatment period (FIG. 5n). This reduction corresponds to an 8.60% decrease in bodyweight (FIG. 5o). […] Indeed, in our experience TUDCA acts as a much more powerful chemical chaperone when compared to PBA, as doses of TUDCA necessary for reducing ER stress in cellular systems^25 or as a leptin-sensitizing agent is much lower than PBA. […]

[3] = system: LepRB signaling (LepRB, Jak2, Stat3); assay: Leptin receptor signaling in LepRB-expressing 293 cells under tunicamycin-induced ER stress; type: cell-based, Human; details: tunicamycin 3 μg/ml (or DMSO) 4 hours, then leptin 100 ng/ml 45 minutes
Excerpt: The leptin receptor belongs to the interleukin 6 (IL-6) receptor family of class I cytokine receptors^30. […] Binding of leptin to LepRb initiates a conformational change that leads to trans-autophosphorylation and activation of LepRb-associated Jak2^31,32 Activated Jak2 then phosphorylates the tyrosine residues within the LepRb/Jak2 complex to mediate downstream signaling. […] To examine whether UPR might alter the leptin signaling, LepRB-expressing 293 cells were first exposed to tunicamycin (3 μg/ml) to activate ER stress for a period of 4 hours and then treated with leptin (100 ng/ml) for 45 minutes. […] Finally, as a downstream element, leptin-stimulated Stat3 activation was analyzed.

[4] = system: Stat3 Tyr705 phosphorylation; assay: Leptin-stimulated Stat3 Tyr705 phosphorylation in hypothalamus of wt lean and ob/ob mice; type: in vivo; details: leptin 0.1 mg/kg IP, six hour fasting, 30 minutes
Procedure: Nine-week old lean wt and ob/ob mice were orally treated with either PBA (1 g/kg/day) or vehicle (VEH) for 26 days and PERK (Thr980) phosphorylation is examined in the hypothalamus extracts with direct immunoblotting. (B) Ten week-old wt lean and ob/ob mice were intraperitoneally injected with leptin (0.1 mg/kg) after six-hour starvation. Hypothalami were removed 30 minutes after the injections, and pStat3^Tyr705 and total Stat3 levels were examined. (C) Nine-week old lean wt and ob/ob mice were orally treated with PBA (1 g/kg/day) for 10 days. Following the pretreatment period, leptin-deficient ob/ob mice were either administered with VEH or with different doses of leptin through the intraperitoneal route. The effect of VEH or PBA administration on (C) bodyweight (g), (D) percent decrease in bodyweight and (E) 24-hour food intake (n=3 for VEH and n=4 PBA-treated group). Effect of 5 mg/kg/day leptin administration on (F) bodyweight, (G) percent decrease in bodyweight and (H) 24-hour food intake in VEH- or PBA-treated ob/ob mice (n=3 for VEH and n=4 PBA-treated group). Analysis of the same parameters (body weight, percent decrease in bodyweight and 24-hour food intake) in (I, J, K) 1 mg/kg/day and (L, M, N) 0.1 mg/kg/day leptin-treated mice (n=3 for VEH and n=4 PBA-treated group). Data presented as means±SEM (*p<0.05, **p<0.01, ***p<0.001). […]

[5] = mice on HFD 32 weeks, TUDCA 150 mg/kg/day with vehicle or leptin 1 mg/kg/day, 16 days

Molecule: O=C(O)CCCc1ccccc1 [PBA, 4-phenyl butyric acid]
- BBB permeability (Fluoro-gold-labeled neurons in VMH, DMH, LHA) [1]: not increased

Molecule: C[C@H](CCC(=O)NCCS(=O)(=O)O)[C@H]1CC[C@H]2[C@@H]3[C@@H](O)C[C@@H]4C[C@H](O)CC[C@]4(C)[C@H]3CC[C@]12C [TUDCA, tauroursodeoxycholic acid]
- initial body weight of the group (before acclimation) ([2]; C57BL/6 wt mice on HFD 32 weeks): 38.33 ± 1.16 g
- body weight after treatment [2, 5]: 32.61 ± 0.65 g
- decrease in bodyweight [2, 5]: 8.60%
- initial weight at start of treatment period ([2]; mice on HFD 32 weeks, after acclimation): 36.16 ± 0.99 g

Molecule: leptin: adipocyte-derived hormone that suppresses appetite
- leptin-induced Stat3 phosphorylation (Tyr705) [3]: significant increase
- leptin-stimulated LepRB tyrosine phosphorylation [3]: marked increase
- Stat3 Tyr705 phosphorylation in the hypothalamus ([4]; ob/ob mice): completely absent
- Stat3 Tyr705 phosphorylation in the hypothalamus ([4]; wt lean mice): responded well
